Source: US20170165274A1, “COMPOSITION” (SHIELD TX (UK) LTD., priority 2014, published 2017)
Read-outs that look alike come from different tables or passages of the source.

Key:
grazed skin [1] = conditions: human, in vivo
[2] = Stability of iron hydroxypyrones in liquid as a function of pH; type: physicochemical; conditions: acid pH
From the text: There is another advantage of a liquid formulation of a ferric tri (hydroxypyrone) in that there is no need to have an acidified preparation for either efficacy or stability. […] This is a significant difference between ferric pyrones in solution and ferrous salts used in medicine.
Unlike the ferrous products a maximum stability of the liquid ferric pyrones and ferrous products containing maltol is achieved in the pH range 5.5-8. With this knowledge the formulations developed require ingredients suited to this constraint and also standardisation of colour and taste for patient acceptability. At higher concentrations of active a suspension formulation may be preferred. Furthermore the excipients must not reduce the excellent bio-availability of iron from iron pyrone formulations.

nasal mucosa [3] = conditions: in vivo
nasal mucosa [4] = test: Contact with the nasal mucosa (irritation); conditions: contact for 10 minute periods
grazed skin [5] = test: Short term exposure on grazed skin in two volunteers (irritation); conditions: 10^−4 M, short term (5 mins) exposure

Cc1occc(=O)c1[O-].Cc1occc(=O)c1[O-].Cc1occc(=O)c1[O-].[Fe+3] [Fe[Maltol]3, ferric trimaltol]
Irritation of grazed skin (grazed skin [1]): did not induce irritation
Stability behaviour in liquid [2]: disproportionates at acid pH values
Irritancy to nasal mucosa (nasal mucosa [3]): neither iron tri-maltol or iron sulphate in contact with the nasal mucosa for 10 minute periods proved to be irritant

O=S(=O)([O-])[O-].[Fe+2] [FeS04, iron sulphate]
Irritancy to nasal mucosa (nasal mucosa [4]): neither iron tri-maltol or iron sulphate in contact with the nasal mucosa for 10 minute periods proved to be irritant
Irritation of grazed skin (grazed skin [5]): did not induce irritation
